Data set [1] is described as follows: Plasma stability, human plasma. In kind it is in vitro ADME. The note with it: human, 0.5 μM. Here is the method: (§1) Animal or human whole blood was collected, then the blood was put into a test tube containing anticoagulant, centrifuged at 3500 rpm for 10 min, and the upper layer of pale yellow plasma was collected. • 2) 10 μM of tested compound (m/M/V=C)
(§2) The compound was weighed, the stock solution was prepared with DMSO and the working solution was prepared with 100 mM phosphate buffer. • 3) 10 μM of positive control • (1) Propantheline (Propantheline Mr=449.4 Da)
(§3) • 1) 285 μL of plasma and 15 μL of 10 μM compound (tested compound) were added in turn in a 96-well plate, and incubated at 37° C. • 2) 40 μL was taken out at 0, 15, 30, 60, 90, 120 min, respectively, and 160 μL of acetonitrile termination solution containing internal standard was added. • 3) After centrifugation (3500 rpm, 10 min), 50 μL of supernatant was taken out, and then diluted with 50 μL DDH2O and injected to LC-MS/MS.
(§4) • instrument: Shimadzu LC-20 AD • chromatographic column: phenomenex Gemiu® C18 (50*4.6 mm, 5 μM particle size); • mobile phase: A: acetonitrile, B: 0.1% formic acid solution 0-8 min: 5% A→95% A, 2.0-2.1 min: 90% A→5% A; flow rate: 0.8 mL/min; running time: 5.0 min; injection volume: 5 μL.
(§5) • instrument: API4000 Liquid Chromatography-Mass Spectrometry, AB, USA; • the ion source was electrospray ionization source (ESI); • the temperature of dry gas (N2) was 500° C.; • electrospray voltage was 5500V; • the detection method was positive ion detection; • the scanning mode was selective response monitoring (MRM); • the scanning time was 0.1 s.

Data set [2] can be described thus: Plasma stability, rat plasma. In kind it is in vitro ADME. The note with it: rat plasma, 37° C. The protocol:
as §1, §2, §3, §4, §5

A short description of data set [3]: Plasma stability, dog plasma. As to conditions: dog plasma, 37° C. In kind it is in vitro ADME. The protocol:
as §1, §2, §3, §4, §5

For data set [4], the target named is T1, hERG potassium channel (Homo sapiens, UniProt Q12809).
T1 construct: expressed in transfected cells; host or cells: CHO-hERG cells
Description: hERG potassium channel inhibitory activity test (Qpatch, CHO-hERG cells). The data set is classed as cell-based. As to conditions: highest test concentration 40 μM, read-out: hERG (μM), inhibition at multiple concentrations on hERG current. The protocol:
7.1.1 CHO-hERG cells were cultured in a 175 cm^2 flask, when the cell density reached 60-80%, the culture medium was removed, the cells were washed with 7 mL PBS, and then digested with 3 mL Detachin. 7.1.2 After complete digestion, 7 mL culture medium was added to neutralize, then the mixture was centrifuged, the supernatant was aspirated, and then 5 mL culture medium was added to re-suspend, ensuring 2-5×10^6/mL of cell density.
The process of single cell high impedance sealing and whole cell mode formation were all automatically completed by Qpatch instrument, after obtaining the whole cell recording mode, the cells were clamped at −80 mV, before giving a 5-second +40 mV depolarization stimulus, a 50 millisecond −50 mV prevoltage was given first, and then repolarized to −50 mV for 5 seconds, then returned to −80 mV. This voltage stimulation was applied every 15 seconds and recorded for 2 minutes before giving extracellular fluid recordings for 5 minutes, and then the administration process was started, the compound concentration was given from the lowest test concentration, each test concentration was given for 2.5 minutes, and the positive control compound 3 μM of Cisapride was given after all concentrations were continuously given. At least 3 cells (n≥3) were tested at each concentration.
7.4.1 20 mM of compound mother liquor was diluted with extracellular fluid, 5 μL of 20 mM compound mother liquor was added into 2495 μL of extracellular fluid and diluted 500-fold to 40 μM, and then the final concentration to be tested was obtained by sequential 3-fold serial dilutions in extracellular solution containing 0.2% DMSO. 7.4.2 The highest test concentration was 40 μM, in a total of 6 concentrations of 40, 13.33, 4.44, 1.48, 0.49 and 0.16 μM respectively. 7.4.3 The content of DMSO in the final test concentration was not more than 0.2%, and this concentration of DMSO had no effect on hERG potassium channel.
The experimental data were analyzed by XLFit software. […]
A general note: Block of hERG is tested as a sign of cardiac risk.

The nature of data set [5]: Plasma stability, mouse plasma. In kind it is in vitro ADME. The note with it: mouse plasma, 37° C. The protocol: as §1, §2, §3, §4, §5

SMILES strings stand for the structures.

T1 sequence (Q12809 whole entry): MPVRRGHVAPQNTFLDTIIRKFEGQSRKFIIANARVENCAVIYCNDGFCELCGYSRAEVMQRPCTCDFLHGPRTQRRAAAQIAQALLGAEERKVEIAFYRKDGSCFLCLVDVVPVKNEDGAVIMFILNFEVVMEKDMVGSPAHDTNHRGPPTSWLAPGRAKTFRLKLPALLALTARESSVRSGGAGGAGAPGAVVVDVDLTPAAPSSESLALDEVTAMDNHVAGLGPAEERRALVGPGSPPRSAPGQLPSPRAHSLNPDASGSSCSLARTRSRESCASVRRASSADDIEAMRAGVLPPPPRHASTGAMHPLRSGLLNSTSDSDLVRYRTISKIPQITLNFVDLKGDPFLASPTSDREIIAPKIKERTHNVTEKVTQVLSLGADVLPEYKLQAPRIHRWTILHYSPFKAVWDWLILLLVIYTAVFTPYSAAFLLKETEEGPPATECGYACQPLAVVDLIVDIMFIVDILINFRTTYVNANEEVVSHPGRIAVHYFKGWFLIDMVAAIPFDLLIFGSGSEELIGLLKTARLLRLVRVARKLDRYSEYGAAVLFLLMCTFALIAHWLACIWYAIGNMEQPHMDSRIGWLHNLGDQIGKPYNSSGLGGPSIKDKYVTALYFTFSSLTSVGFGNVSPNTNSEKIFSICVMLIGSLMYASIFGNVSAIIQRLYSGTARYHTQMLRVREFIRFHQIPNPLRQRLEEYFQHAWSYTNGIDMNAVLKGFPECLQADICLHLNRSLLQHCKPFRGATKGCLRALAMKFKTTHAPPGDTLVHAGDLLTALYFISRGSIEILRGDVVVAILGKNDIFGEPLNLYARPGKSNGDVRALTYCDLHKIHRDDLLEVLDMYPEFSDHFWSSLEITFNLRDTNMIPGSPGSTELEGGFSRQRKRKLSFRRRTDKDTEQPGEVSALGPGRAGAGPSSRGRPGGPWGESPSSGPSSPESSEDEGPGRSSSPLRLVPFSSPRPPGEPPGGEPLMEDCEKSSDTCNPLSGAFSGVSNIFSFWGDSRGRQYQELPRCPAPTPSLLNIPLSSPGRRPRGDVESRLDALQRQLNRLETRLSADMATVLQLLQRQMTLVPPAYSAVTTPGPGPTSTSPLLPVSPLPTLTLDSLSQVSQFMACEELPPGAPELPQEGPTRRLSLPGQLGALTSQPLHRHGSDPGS

Regarding `C=CC(=O)N1C[C@H](C)N(c2nc(=O)n(-c3c(SC)ccnc3C(C)C)c3nc(-c4c(O)cccc4F)c(Cl)cc23)C[C@H]1C` (atropisomer, axis not shown) [Embodiment 14-1, P-4-((2S,5R)-4-Acryloyl-2,5-dimethylpiperazin-1-yl)-6-chloro-7-(2-fluoro-6-hydroxyphenyl)-1-(2-isopropyl-4-(methylthio)pyridin-3-yl)pyrido[2,3-d]pyrimidin-2(1H)-one], the “Residual rate (%) 0 min” value in data set [1] (0 min), in data set [2] (0 min), in data set [3] (0 min) and in data set [5] (0 min) was 100.00% in each case. The “Residual rate (%) 15 min” value in data set [1] (15 min) is listed as 99.15%; in data set [2] (15 min), 93.20%; in data set [3] (15 min) it was 99.98%; in data set [5] (15 min) it was 105.42%. Moreover, the “Residual rate (%) 30 min” value in data set [1] (30 min) was found to be 94.74%; in data set [2] (30 min) it was 98.32%; in data set [3] (30 min) it was 98.79%; in data set [5] (30 min), 100.02%. In addition, the “Residual rate (%) 60 min” value worked out at 89.14% in data set [1] (60 min), 99.08% in data set [2] (60 min), 93.69% in data set [3] (60 min) and 99.12% in data set [5] (60 min). The “Residual rate (%) 120 min” value in data set [1] (120 min) is given as 78.85%; in data set [2] (120 min) it was 96.46%; in data set [3] (120 min) it was 86.16%; in data set [5] (120 min) it was 85.55%. In data set [4], the IC50 is more than 30 µM.

For the origin of these results see US20240325394A1, “SALT AND CRYSTAL FORM OF NITROGEN-CONTAINING HETEROCYCLIC DERIVATIVE, PREPARATION METHOD THEREFOR AND APPLICATION THEREOF” (SHANGHAI HANSOH BIOMEDICAL CO., LTD., priority 2020, published 2024).
